Assay results as given in PubChem BioAssay (NCI).
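Following 48 hours of exposure in 96-well plates, responses at five concentrations were used to interpolate endpoints linearly. At the TGI there is no net growth.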

Tests used:
Assay in all cases: DTP human tumour cell line panel, 48 h
[1] = system: BT-549 breast
[2] = system: CAKI-1 renal
[3] = system: CCRF-CEM leukemia
[4] = system: HCT-116 colon
[5] = system: HOP-62 NSCLC
[6] = system: K-562 leukemia
[7] = system: MDA-MB-435
[8] = system: MDA-N
[9] = system: MOLT-4 leukemia
[10] = system: NCI-H23 lung
[11] = system: NCI-H460 lung
[12] = system: OVCAR-4 ovarian
[13] = system: OVCAR-5 ovarian
[14] = system: RPMI-8226 leukemia
[15] = system: RXF 393 renal
[16] = system: SNB-75 CNS

Compound	TGI [1]	TGI [2]	TGI [3]	TGI [4]	TGI [5]	TGI [6]	TGI [7]	TGI [8]	TGI [9]	TGI [10]	TGI [11]	TGI [12]	TGI [13]	TGI [14]	TGI [15]	TGI [16]
C=C(C)[C@@H]1CC[C@@H](C)[C@](O)([C@@H]2C[C@@H]([C@H](COC(=O)c3ccccc3)OC(=O)c3ccccc3)OC2=O)C1	> 100 µM	> 100 µM	> 100 µM	> 100 µM	> 100 µM	> 100 µM	> 100 µM	> 100 µM	> 100 µM	> 100 µM	> 100 µM	> 100 µM	> 100 µM	> 100 µM	> 100 µM	> 100 µM
CC(NC(=O)/C(C#N)=C/c1ccc2[nH]ccc2c1)c1ccccc1 (stereo unspecified)	23.5 µM	66 µM	45.8 µM	28.1 µM	33.4 µM	> 77.9 µM	31.1 µM	31.4 µM	52.3 µM	43.3 µM	34.9 µM	49.5 µM	37.3 µM	> 73.1 µM	34.5 µM	60.5 µM
CCOc1ccc(N/C(=C(/C(Cl)=C(/Cl)NCCO)[N+](=O)[O-])n2nnc3ccccc32)cc1	38.6 µM	27.8 µM	> 100 µM	> 100 µM	> 100 µM	> 100 µM	35.1 µM	> 100 µM	> 100 µM	33 µM	> 100 µM	> 100 µM	> 100 µM	> 100 µM	31.7 µM	> 100 µM
COc1cccc(-c2cccc(SC)n2)n1	> 100 µM	> 100 µM	41.5 µM	> 100 µM	> 100 µM	> 100 µM	86.8 µM	> 100 µM	> 100 µM	> 100 µM	> 100 µM	> 100 µM	> 100 µM	78.1 µM	63 µM	> 100 µM
COc1cc(/C=C2/SC(c3ccccc3)N(c3ccc(Cl)cc3)C2=O)cc(OC)c1OC (stereo unspecified)	> 100 µM	> 100 µM	> 44.8 µM	> 100 µM	> 100 µM	> 100 µM	24.2 µM	31.8 µM	> 100 µM	> 100 µM	> 100 µM	> 100 µM	> 100 µM	> 100 µM	> 100 µM	> 100 µM
O=C1SC(c2ccc(Cl)cc2)(c2ccc(Cl)cc2)c2ccccc21	> 100 µM	> 100 µM	> 100 µM	55.3 µM	> 100 µM	> 100 µM	> 100 µM	> 100 µM	> 100 µM	> 100 µM	> 100 µM	> 100 µM	> 100 µM	> 100 µM	> 100 µM	> 100 µM
COC1C=C(NCC2(CO)CCC2)NC(N)=N1 (stereo unspecified)	> 100 µM	> 100 µM	> 100 µM	> 100 µM	> 100 µM	> 100 µM	> 100 µM	> 100 µM	> 100 µM	> 100 µM	> 100 µM	> 100 µM	> 100 µM	> 100 µM	> 100 µM	> 100 µM
C[C@]12CC(c3ccccc3O1)C(C#N)C(=O)N2 (stereo partly specified)	> 100 µM	> 100 µM	> 100 µM	> 100 µM	> 100 µM	> 100 µM	> 100 µM	> 100 µM	> 100 µM	> 100 µM	> 100 µM	> 100 µM	> 100 µM	> 100 µM	> 100 µM	> 100 µM
CC(=O)O[C@H]1C(=O)[C@@]2(C)[C@H]([C@H](OC(=O)c3ccc([N+](=O)[O-])cc3)[C@]3(O)C[C@H](OC(=O)[C@H](O)[C@@H](NC(=O)c4ccccc4)c4ccccc4)C(C)=C1C3(C)C)[C@]1(OC(C)=O)CO[C@@H]1C[C@@H]2O	> 25 µM	> 25 µM	> 25 µM	> 25 µM	> 25 µM	> 25 µM	> 25 µM	> 25 µM	> 25 µM	> 25 µM	> 25 µM	> 25 µM	> 25 µM	> 25 µM	> 25 µM	> 25 µM
COc1ccc2nc3cc([N+](=O)[O-])ccc3c(NNc3ccc(Cl)cc3)c2c1	> 92.1 µM	2.26 µM	80.1 µM	> 55.7 µM	> 78.8 µM	> 68.3 µM	> 100 µM	> 100 µM	> 92.4 µM	> 100 µM	> 59 µM	> 100 µM	> 100 µM	78.7 µM	> 83.4 µM	> 100 µM
Nc1nc(Cl)cc(NCC2(CO)CCC2)n1	> 100 µM	> 100 µM	> 100 µM	> 100 µM	> 100 µM	> 100 µM	> 100 µM	> 100 µM	> 100 µM	> 100 µM	> 100 µM	> 100 µM	> 100 µM	> 100 µM	> 100 µM	> 100 µM
N#CC1=C(C#N)/C(=C(\C#N)C(C#N)C#N)N=C1N	> 78.7 µM	> 100 µM	50.7 µM	> 100 µM	> 66.6 µM	> 100 µM	36.7 µM	30.3 µM	64.4 µM	> 100 µM	> 100 µM	> 100 µM	> 93.9 µM	> 81.3 µM	> 100 µM	> 81.8 µM
C/C(=N\NS(=O)(=O)c1ccc(C)cc1)C(CN(C)C)C(c1ccccc1)c1c(O)c2ccccc2oc1=O (stereo unspecified)	> 100 µM	> 100 µM	> 100 µM	> 100 µM	> 100 µM	> 100 µM	> 100 µM	> 100 µM	> 100 µM	> 100 µM	> 100 µM	> 100 µM	> 100 µM	> 100 µM	> 100 µM	> 84.7 µM
Cn1cnc2c(OCC3CCCCC3)nc(N)nc21	> 100 µM	> 100 µM	> 100 µM	> 100 µM	> 100 µM	> 100 µM	> 100 µM	> 100 µM	> 100 µM	> 100 µM	> 100 µM	> 100 µM	> 100 µM	> 100 µM	> 100 µM	> 100 µM
C=C1CC2(OC1=O)c1ccccc1C=Cc1ccccc12	3.61 µM	6.08 µM	6.58 µM	5.4 µM	24.9 µM	10.7 µM	3.37 µM	4.47 µM	5.4 µM	14.7 µM	25.4 µM	11.7 µM	22.5 µM	8.68 µM	8.12 µM	20.2 µM
CC1=NN2C(=O)CC(=O)N=C2S1	> 100 µM	> 100 µM	> 100 µM	> 100 µM	> 100 µM	> 100 µM	> 100 µM	> 100 µM	> 100 µM	> 100 µM	> 100 µM	> 100 µM	> 100 µM	> 100 µM	> 100 µM	> 100 µM
